Results published in the supplement of paper PMC8617591.

What was measured:
[1] = test system: Mycobacterium tuberculosis Erdman (autoluminescent); assay: total FIC50 (Loewe) at 50% inhibition, three-drug combination (log2); higher = more antagonistic
Method: (§1)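 DiaMOND equipotent three-drug combination dose responses (10 doses, 1.5- or 2-fold spacing, centred on IC90) against autoluminescent M. tuberculosis Erdman in 8 in vitro models. Read-out is OD600, or luminescence for the intracellular and dormancy models, normalised to untreated wells. Hill-fit Einf, AUC25 and GRinf are potency metrics; FIC50 and FIC90 are total Loewe fractional inhibitory concentrations as log2 (negative = synergy).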

[2] = test system: Mycobacterium tuberculosis Erdman (autoluminescent); assay: total FIC90 (Loewe) at 90% inhibition, three-drug combination (log2); higher = more antagonistic
Method: as §1

[3] = test system: Mycobacterium tuberculosis Erdman (autoluminescent); assay: Einf, fitted maximum growth inhibition of three-drug combination (fraction); higher = stronger maximal inhibition
Method: as §1

[4] = test system: Mycobacterium tuberculosis Erdman (autoluminescent); assay: AUC25, normalised area under dose response up to IC25 (three-drug combination) (fraction (0-1)); higher = more potent at low dose
Method: as §1

[5] = test system: Mycobacterium tuberculosis Erdman (autoluminescent); assay: GRinf, maximum normalised growth rate inhibition (three-drug combination) (unitless (-1 to 1)); higher = less effect (negative = killing)
Method: as §1

[6] = in vitro model: acidic pH 5.7, time point: constant (~7 days, model-specific)
[7] = in vitro model: acidic pH 5.7, time point: terminal (~4-5 doublings, model-specific)
[8] = in vitro model: butyrate, time point: constant (~7 days, model-specific)
[9] = in vitro model: butyrate, time point: terminal (~4-5 doublings, model-specific)
[10] = in vitro model: cholesterol 0.05 mM, time point: constant (~7 days, model-specific)
[11] = in vitro model: cholesterol 0.05 mM, time point: terminal (~4-5 doublings, model-specific)
[12] = in vitro model: cholesterol-high 0.2 mM, time point: constant (~7 days, model-specific)
[13] = in vitro model: cholesterol-high 0.2 mM, time point: terminal (~4-5 doublings, model-specific)
[14] = in vitro model: dormancy (butyrate + nitrate, low O2), time point: constant (~7 days, model-specific)
[15] = in vitro model: dormancy (butyrate + nitrate, low O2), time point: terminal (~4-5 doublings, model-specific)
[16] = in vitro model: standard 7H9 glycerol, time point: constant = terminal
[17] = in vitro model: valerate, time point: constant (~7 days, model-specific)
[18] = in vitro model: valerate, time point: terminal (~4-5 doublings, model-specific)
[19] = in vitro model: intracellular J774, time point: constant = terminal

Compound: COc1nc2ccc(Br)cc2cc1[C@@H](c1ccccc1)[C@@](O)(CCN(C)C)c1cccc2ccccc12 [bedaquiline] + CC(C)/N=c1\cc2n(-c3ccc(Cl)cc3)c3ccccc3nc-2cc1Nc1ccc(Cl)cc1 [clofazimine] + CC[C@@H](CO)NCCN[C@@H](CC)CO [ethambutol]
- total FIC50 [1, 6]: 0.516
- total FIC50 [1, 7]: 0.534
- total FIC50 [1, 8]: 0.078
- total FIC50 [1, 9]: 0.111
- total FIC50 [1, 10]: 0.0426
- total FIC50 [1, 11]: 0.424
- total FIC50 [1, 12]: 0.329
- total FIC50 [1, 13]: 0.543
- total FIC50 [1, 14]: 0.788
- total FIC50 [1, 15]: 0.238
- total FIC50 [1, 16]: -0.254
- total FIC50 [1, 17]: 0.469
- total FIC50 [1, 18]: 0.16
- total FIC90 [2, 7]: 0.129
- total FIC90 [2, 9]: -0.667
- total FIC90 [2, 13]: 0.542
- total FIC90 [2, 15]: 0.0433
- total FIC90 [2, 19]: -0.364
- total FIC90 [2, 18]: -0.225
- Einf [3, 6]: 0.852
- Einf [3, 7]: 0.969
- Einf [3, 8]: 0.945
- Einf [3, 9]: 0.976
- Einf [3, 10]: 0.762
- Einf [3, 11]: 0.937
- Einf [3, 12]: 0.996
- Einf [3, 13]: 1
- Einf [3, 14]: 0.82
- Einf [3, 15]: 0.991
- Einf [3, 19]: 0.992
- Einf [3, 16]: 0.965
- Einf [3, 17]: 0.947
- Einf [3, 18]: 0.962
- AUC25 [4, 6]: 0.0844
- AUC25 [4, 7]: 0.0687
- AUC25 [4, 8]: 0.0618
- AUC25 [4, 9]: 0.0476
- AUC25 [4, 10]: 0.0892
- AUC25 [4, 11]: 0.117
- AUC25 [4, 12]: 0.0568
- AUC25 [4, 13]: 0.0708
- AUC25 [4, 14]: 0.102
- AUC25 [4, 15]: 0.0994
- AUC25 [4, 16]: 0.0939
- AUC25 [4, 17]: 0.107
- AUC25 [4, 18]: 0.0804
- GRinf [5, 6]: -0.216
- GRinf [5, 7]: -0.273
- GRinf [5, 8]: -0.0931
- GRinf [5, 9]: -0.104
- GRinf [5, 10]: -0.109
- GRinf [5, 11]: -0.32
- GRinf [5, 12]: -0.788
- GRinf [5, 13]: -0.736
- GRinf [5, 14]: 0.429
- GRinf [5, 15]: -0.239
- GRinf [5, 19]: -0.72
- GRinf [5, 16]: -0.0889
- GRinf [5, 17]: -0.0899
- GRinf [5, 18]: -0.0795

Compound: COc1nc2ccc(Br)cc2cc1[C@@H](c1ccccc1)[C@@](O)(CCN(C)C)c1cccc2ccccc12 [bedaquiline] + CC(C)/N=c1\cc2n(-c3ccc(Cl)cc3)c3ccccc3nc-2cc1Nc1ccc(Cl)cc1 [clofazimine] + CO[C@H]1/C=C/O[C@@]2(C)Oc3c(C)c(O)c4c(O)c(c(/C=N/N5CCN(C6CCCC6)CC5)c(O)c4c3C2=O)NC(=O)/C(C)=C\C=C\[C@H](C)[C@H](O)[C@@H](C)[C@@H](O)[C@@H](C)[C@H](OC(C)=O)[C@@H]1C [rifapentine]
- total FIC50 [1, 6]: 0.793
- total FIC50 [1, 7]: 0.66
- total FIC50 [1, 8]: 0.174
- total FIC50 [1, 9]: 0.264
- total FIC50 [1, 10]: -0.467
- total FIC50 [1, 11]: 0.869
- total FIC50 [1, 12]: -0.0878
- total FIC50 [1, 13]: 0.507
- total FIC50 [1, 14]: -0.0609
- total FIC50 [1, 15]: -0.242
- total FIC50 [1, 16]: -0.0863
- total FIC50 [1, 17]: 0.292
- total FIC50 [1, 18]: 0.461
- total FIC90 [2, 7]: 0.55
- total FIC90 [2, 8]: -0.813
- total FIC90 [2, 9]: -0.221
- total FIC90 [2, 11]: -0.165
- total FIC90 [2, 12]: -0.883
- total FIC90 [2, 13]: -0.0793
- total FIC90 [2, 14]: -0.282
- total FIC90 [2, 15]: -0.206
- total FIC90 [2, 19]: -0.0198
- total FIC90 [2, 16]: -0.842
- total FIC90 [2, 18]: 0.966
- Einf [3, 6]: 0.924
- Einf [3, 7]: 0.997
- Einf [3, 8]: 0.948
- Einf [3, 9]: 0.983
- Einf [3, 10]: 0.716
- Einf [3, 11]: 0.926
- Einf [3, 12]: 0.965
- Einf [3, 13]: 1
- Einf [3, 14]: 0.937
- Einf [3, 15]: 0.997
- Einf [3, 19]: 0.951
- Einf [3, 16]: 0.959
- Einf [3, 17]: 0.895
- Einf [3, 18]: 0.95
- AUC25 [4, 6]: 0.0909
- AUC25 [4, 7]: 0.0906
- AUC25 [4, 8]: 0.0667
- AUC25 [4, 9]: 0.0586
- AUC25 [4, 10]: 0.0889
- AUC25 [4, 11]: 0.085
- AUC25 [4, 12]: 0.0509
- AUC25 [4, 13]: 0.0654
- AUC25 [4, 14]: 0.0857
- AUC25 [4, 15]: 0.0766
- AUC25 [4, 16]: 0.079
- AUC25 [4, 17]: 0.0956
- AUC25 [4, 18]: 0.0686
- GRinf [5, 6]: -0.309
- GRinf [5, 7]: -0.284
- GRinf [5, 8]: -0.116
- GRinf [5, 9]: -0.124
- GRinf [5, 10]: -0.179
- GRinf [5, 11]: -0.231
- GRinf [5, 12]: -0.378
- GRinf [5, 13]: -0.595
- GRinf [5, 14]: 0.218
- GRinf [5, 15]: -0.206
- GRinf [5, 19]: -0.199
- GRinf [5, 16]: -0.0819
- GRinf [5, 17]: -0.0953
- GRinf [5, 18]: -0.0333

Compound: COc1nc2ccc(Br)cc2cc1[C@@H](c1ccccc1)[C@@](O)(CCN(C)C)c1cccc2ccccc12 [bedaquiline] + CC(C)/N=c1\cc2n(-c3ccc(Cl)cc3)c3ccccc3nc-2cc1Nc1ccc(Cl)cc1 [clofazimine] + CO[C@H]1/C=C/O[C@@]2(C)Oc3c(C)c(O)c4c(O)c(c(/C=N/N5CCN(C)CC5)c(O)c4c3C2=O)NC(=O)/C(C)=C\C=C\[C@H](C)[C@H](O)[C@@H](C)[C@@H](O)[C@@H](C)[C@H](OC(C)=O)[C@@H]1C [rifampicin]
- total FIC50 [1, 6]: 0.927
- total FIC50 [1, 7]: 0.816
- total FIC50 [1, 8]: 0.164
- total FIC50 [1, 9]: 0.163
- total FIC50 [1, 10]: -0.919
- total FIC50 [1, 11]: 0.904
- total FIC50 [1, 12]: -0.143
- total FIC50 [1, 13]: 0.757
- total FIC50 [1, 14]: -0.0697
- total FIC50 [1, 15]: -0.41
- total FIC50 [1, 16]: -0.172
- total FIC50 [1, 17]: 0.776
- total FIC50 [1, 18]: 0.627
- total FIC90 [2, 7]: 0.52
- total FIC90 [2, 8]: -0.692
- total FIC90 [2, 9]: -0.325
- total FIC90 [2, 11]: -0.861
- total FIC90 [2, 12]: -0.728
- total FIC90 [2, 13]: -0.216
- total FIC90 [2, 14]: -0.643
- total FIC90 [2, 15]: -0.344
- total FIC90 [2, 19]: 0.287
- total FIC90 [2, 16]: -1.01
- total FIC90 [2, 18]: 0.54
- Einf [3, 6]: 0.926
- Einf [3, 7]: 0.992
- Einf [3, 8]: 0.954
- Einf [3, 9]: 0.983
- Einf [3, 10]: 0.714
- Einf [3, 11]: 0.925
- Einf [3, 12]: 0.933
- Einf [3, 13]: 0.999
- Einf [3, 14]: 0.906
- Einf [3, 15]: 0.994
- Einf [3, 19]: 0.965
- Einf [3, 16]: 0.959
- Einf [3, 17]: 0.88
- Einf [3, 18]: 0.936
- AUC25 [4, 6]: 0.0895
- AUC25 [4, 7]: 0.0837
- AUC25 [4, 8]: 0.0821
- AUC25 [4, 9]: 0.0695
- AUC25 [4, 10]: 0.0702
- AUC25 [4, 11]: 0.0755
- AUC25 [4, 12]: 0.0563
- AUC25 [4, 13]: 0.0498
- AUC25 [4, 14]: 0.0659
- AUC25 [4, 15]: 0.0651
- AUC25 [4, 16]: 0.0883
- AUC25 [4, 17]: 0.0872
- AUC25 [4, 18]: 0.0594
- GRinf [5, 6]: -0.41
- GRinf [5, 7]: -0.332
- GRinf [5, 8]: -0.113
- GRinf [5, 9]: -0.115
- GRinf [5, 10]: -0.146
- GRinf [5, 11]: -0.226
- GRinf [5, 12]: -0.277
- GRinf [5, 13]: -0.582
- GRinf [5, 14]: 0.222
- GRinf [5, 15]: -0.191
- GRinf [5, 19]: -0.213
- GRinf [5, 16]: -0.1
- GRinf [5, 17]: -0.0295
- GRinf [5, 18]: -0.0101
